This is an account of results in PubChem BioAssay AID220 (DTP/NCI, 2004).

Molecules are shown by their SMILES. “And” between values parts separate entries of the source, which are not always exact repeats. Identical values can stand only once. Records with an inconclusive call do not appear.

The test system of this test is CD8F1 mice, subcutaneous mammary adenocarcinoma, T/C%. In words: NCI In Vivo Anticancer Drug Screen. Data for tumor model Mammary Adenocarcinoma CD8F1 (subcutaneous) in CD8F1. To be noted: higher = larger tumour. In outline: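 Antitumor activity is assessed in transplantable-tumor mice by comparing the treated group with a vehicle-treated control group. Survival or tumor size serves as the measure, reported as T divided by C.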

[1] abbreviates: endpoint: median tumor weight change, dose: 125.0 mg/kg/injection, schedule: Q01DX001 (ip), vehicle: saline with Tween-80.
Where [2] appears, read: endpoint: median tumor weight change, dose: 250.0 mg/kg/injection, schedule: Q01DX001 (ip), vehicle: saline with Tween-80.
The mark [3] stands for this setting: endpoint: median tumor weight change, dose: 500.0 mg/kg/injection, schedule: Q01DX001 (ip), vehicle: saline with Tween-80.
[4] abbreviates: endpoint: median tumor weight (est.), dose: 12.5 mg/kg/injection, schedule: Q07DX005 (ip), vehicle: saline with Tween-80.

In the case of `Oc1c(Cl)cc(Cl)cc1C1N2CCCCC2C2c3cccn3-c3ccccc3N21` (stereo not drawn), the T/C was 69 % of control under setting [1]; 85 % of control under setting [2]; 58 % of control under setting [3]; 68 % of control (endpoint: median tumor weight change, dose: 1000.0 mg/kg/injection, schedule: Q01DX001 (ip), vehicle: saline with Tween-80); 79 % of control (endpoint: median tumor weight change, dose: 2000.0 mg/kg/injection, schedule: Q01DX001 (ip), vehicle: saline with Tween-80).

Turning to `C=C1C(=O)OCC2C(C(=O)O)=CC3C(C)C(C)=CC123` (stereo not drawn), the T/C (endpoint: median tumor weight (est.), dose: 10.0 mg/kg/injection, schedule: Q07DX005 (ip), vehicle: Klucel (hydroxypropylcellulose) (HPC)) was 101 % of control; the T/C (endpoint: median tumor weight (est.), dose: 20.0 mg/kg/injection, schedule: Q07DX005 (ip), vehicle: Klucel (hydroxypropylcellulose) (HPC)) was 95 % of control and 105 % of control; the T/C (endpoint: median tumor weight (est.), dose: 40.0 mg/kg/injection, schedule: Q07DX005 (ip), vehicle: Klucel (hydroxypropylcellulose) (HPC)) was 100 % of control and 114 % of control; the T/C (endpoint: median tumor weight (est.), dose: 80.0 mg/kg/injection, schedule: Q07DX005 (ip), vehicle: Klucel (hydroxypropylcellulose) (HPC)) is 75 % of control and 85 % of control; the T/C (endpoint: median tumor weight (est.), dose: 160.0 mg/kg/injection, schedule: Q07DX005 (ip), vehicle: Klucel (hydroxypropylcellulose) (HPC)) is 101 % of control.

Take `CN=C(N)N/N=C(\C)c1ccc2c(c1)Cc1cc(/C(C)=N/NC(N)=NC)ccc1-2`: the T/C (endpoint: median tumor weight change, dose: 7.5 mg/kg/injection, schedule: Q01DX001 (ip), vehicle: saline with Tween-80) is 112 % of control and the T/C (endpoint: median tumor weight change, dose: 15.0 mg/kg/injection, schedule: Q01DX001 (ip), vehicle: saline with Tween-80) is 102 % of control.

As to `CSc1ncnc2c1ncn2C1OC(CO)C(O)C1O` (stereo not drawn), the T/C reads like this: (endpoint: median tumor weight change, dose: 16.0 mg/kg/injection, schedule: Q01DX001 (ip), vehicle: saline + alcohol) 67 % of control; (endpoint: median tumor weight change, dose: 31.0 mg/kg/injection, schedule: Q01DX001 (ip), vehicle: saline + alcohol) 82 % of control; (endpoint: median tumor weight change, dose: 62.0 mg/kg/injection, schedule: Q01DX001 (ip), vehicle: saline + alcohol) 52 % of control; (endpoint: median tumor weight change, dose: 62.5 mg/kg/injection, schedule: Q01DX001 (ip), vehicle: saline + alcohol) 79 % of control; (endpoint: median tumor weight change, dose: 125.0 mg/kg/injection, schedule: Q01DX001 (ip), vehicle: saline + alcohol) 52 % of control and 70 % of control; (endpoint: median tumor weight change, dose: 250.0 mg/kg/injection, schedule: Q01DX001 (ip), vehicle: saline + alcohol) 10 % of control and 12 % of control.

For the compound `C/C(=N/NC(N)=S)c1ccc2ccccc2c1`, the T/C (endpoint: median tumor weight (est.), dose: 3.12 mg/kg/injection, schedule: Q07DX005 (ip), vehicle: saline with Tween-80) is 152 % of control; the T/C (endpoint: median tumor weight (est.), dose: 6.25 mg/kg/injection, schedule: Q07DX005 (ip), vehicle: saline with Tween-80) is 95 % of control and 100 % of control; the T/C under setting [4] was 69 % of control and 72 % of control.

`CCCN1COC(OCC)C(C)(C)C1` (stereo not drawn): the T/C by setting is: (endpoint: median tumor weight change, dose: 50.0 mg/kg/injection, schedule: Q01DX001 (ip), vehicle: saline with Tween-80) 102 % of control; (endpoint: median tumor weight change, dose: 100.0 mg/kg/injection, schedule: Q01DX001 (ip), vehicle: saline with Tween-80) 85 % of control; under setting [1], 66 % of control; (endpoint: median tumor weight change, dose: 200.0 mg/kg/injection, schedule: Q01DX001 (ip), vehicle: saline with Tween-80) 84 % of control; under setting [2], 47 % of control; under setting [3], 47 % of control.

On to `NC(=O)Oc1cccc(OC(N)=O)c1`, for which the T/C by setting is: (endpoint: mean tumor weight, dose: 50.0 mg/kg/injection, schedule: Q07DX006 (ip), vehicle: water) 161 % of control; (endpoint: mean tumor weight, dose: 100.0 mg/kg/injection, schedule: Q07DX006 (ip), vehicle: water) 56 % of control; (endpoint: mean tumor weight, dose: 200.0 mg/kg/injection, schedule: Q07DX006 (ip), vehicle: water) 73 % of control; (endpoint: mean tumor weight, dose: 400.0 mg/kg/injection, schedule: Q07DX006 (ip), vehicle: water) 93 % of control; (endpoint: median tumor weight (est.), dose: 25.0 mg/kg/injection, schedule: Q07DX005 (ip), vehicle: water) 99 % of control; (endpoint: median tumor weight (est.), dose: 50.0 mg/kg/injection, schedule: Q07DX005 (ip), vehicle: water) 105 % of control. Further, the T/C was 106 % of control (endpoint: median tumor weight (est.), dose: 200.0 mg/kg/injection, schedule: Q07DX005 (ip), vehicle: water) and 63 % of control (endpoint: median tumor weight (est.), dose: 400.0 mg/kg/injection, schedule: Q07DX005 (ip), vehicle: water).

`CCCCCCCCCCCCCCCCCC(=O)Nc1ccn(C2OC(CO)C(O)C2O)c(=O)n1` (stereo not drawn): the T/C was 98 % of control under setting [4]; 93 % of control (endpoint: median tumor weight (est.), dose: 12.5 mg/kg/injection, schedule: Q07DX005 (ip), vehicle: suspension in saline); 52 % of control (endpoint: median tumor weight (est.), dose: 25.0 mg/kg/injection, schedule: Q07DX005 (ip), vehicle: saline with Tween-80); 27 % of control (endpoint: median tumor weight (est.), dose: 25.0 mg/kg/injection, schedule: Q07DX005 (ip), vehicle: suspension in saline); 49 % of control (endpoint: median tumor weight (est.), dose: 50.0 mg/kg/injection, schedule: Q07DX005 (ip), vehicle: saline with Tween-80); 45 % of control (endpoint: median tumor weight (est.), dose: 50.0 mg/kg/injection, schedule: Q07DX005 (ip), vehicle: suspension in saline). Also, the T/C (endpoint: median tumor weight (est.), dose: 77.0 mg/kg/injection, schedule: Q07DX005 (ip), vehicle: saline with Tween-80) is 25 % of control; the T/C (endpoint: median tumor weight (est.), dose: 100.0 mg/kg/injection, schedule: Q07DX005 (ip), vehicle: saline with Tween-80) was 13 % of control; the T/C (endpoint: median tumor weight (est.), dose: 100.0 mg/kg/injection, schedule: Q07DX005 (ip), vehicle: suspension in saline) was 53 % of control; the T/C (endpoint: median tumor weight (est.), dose: 118.0 mg/kg/injection, schedule: Q07DX005 (ip), vehicle: saline with Tween-80) is 7 % of control.

Regarding `CCC1=C[C@H]2CN(CCc3c([nH]c4ccccc34)[C@@](C(=O)OC)(c3cc4c(cc3OC)N(C)[C@H]3[C@@](O)(C(=O)OC)[C@H](OC(C)=O)[C@]5(CC)C=CCN6CC[C@]43[C@@H]65)C2)C1`, the T/C reads like this: (endpoint: median tumor weight change, dose: 4.0 mg/kg/injection, schedule: Q01DX001 (ip), vehicle: water) 100 % of control; (endpoint: median tumor weight change, dose: 8.0 mg/kg/injection, schedule: Q01DX001 (ip), vehicle: water) 36 % of control.

As to `CC(C)CCC[C@@H](C)[C@H]1CC[C@H]2[C@@H]3CC=C4C[C@@H](OC(=O)Cc5ccc(N(CCCl)CCCl)cc5)CC[C@]4(C)[C@H]3CC[C@]12C`, the T/C is, setting by setting: (endpoint: median tumor weight (est.), dose: 25.0 mg/kg/injection, schedule: Q07DX005 (ip), vehicle: Klucel (hydroxypropylcellulose) (HPC)) 91 % of control; (endpoint: median tumor weight (est.), dose: 50.0 mg/kg/injection, schedule: Q07DX005 (ip), vehicle: Klucel (hydroxypropylcellulose) (HPC)) 73 % of control; (endpoint: median tumor weight (est.), dose: 100.0 mg/kg/injection, schedule: Q07DX005 (ip), vehicle: Klucel (hydroxypropylcellulose) (HPC)) 123 % of control; (endpoint: median tumor weight (est.), dose: 200.0 mg/kg/injection, schedule: Q07DX005 (ip), vehicle: Klucel (hydroxypropylcellulose) (HPC)) 57 % of control; (endpoint: median tumor weight (est.), dose: 400.0 mg/kg/injection, schedule: Q07DX005 (ip), vehicle: Klucel (hydroxypropylcellulose) (HPC)) 102 % of control; (endpoint: median tumor weight (est.), dose: 800.0 mg/kg/injection, schedule: Q07DX005 (ip), vehicle: Klucel (hydroxypropylcellulose) (HPC)) 36 % of control.

As to `COP12(OCCO1)SC(C(F)(F)F)=C(C(F)(F)F)S2`, the T/C (endpoint: median tumor weight (est.), dose: 25.0 mg/kg/injection, schedule: Q07DX005 (ip), vehicle: saline) was 210 % of control; the T/C (endpoint: median tumor weight (est.), dose: 50.0 mg/kg/injection, schedule: Q07DX005 (ip), vehicle: saline) is 183 % of control; the T/C (endpoint: median tumor weight (est.), dose: 100.0 mg/kg/injection, schedule: Q07DX005 (ip), vehicle: saline) was 351 % of control; the T/C (endpoint: median tumor weight (est.), dose: 200.0 mg/kg/injection, schedule: Q07DX005 (ip), vehicle: saline) was 159 % of control; the T/C (endpoint: median tumor weight (est.), dose: 400.0 mg/kg/injection, schedule: Q07DX005 (ip), vehicle: saline) is 72 % of control.
